Several values for one entry are separate records, joined by “and”; a condition that tells them apart may be missing. Identical values can stand only once.
What was measured:
U-87MG cells = experiment: Cell fractioning (FractionPREP kit), Ru content by ICP-MS; type: in vitro ADME; details: 10 μM, 24 h
Method: Ru content in different compartments was determined via a FractionPREP Cell Fractionation Kit (Abcam, Cambridge, U.K., no 288085). U-87MG cells were seeded in 25 cm^2 OptiMEM medium (1.5 × 10^6 cells) for 24 h. […] Untreated cells served as control. After 24 h of incubation, the cells were collected, counted, and fractioned according to the manufacturer’s procedure. In short, the cells were collected and centrifuged at 700g for 5 min. The cells were then washed with ice-cold PBS (1 mL) followed by 5 min centrifuging at 700g, and the supernatant was removed. The cell pellet was resuspended in 1 mL of ice-cold PBS, transferred into a 1.5 mL Eppendorf tube, and spun for 5 min at 700g, and the supernatant was removed. The pellet was resuspended in 400 μL of Extraction Buffer III/Cytosol Extraction Buffer Mix [containing 2 μL of dithiothreitol (DTT) and 2 μL of protease inhibitor cocktail per mL]. The cells were mixed well by carefully pipetting up and down (ca. 5 times). The sample was incubated on ice for 20 min with gentle tapping three to four times every 5 min. Afterward, the sample was centrifuged at 700g for 10 min. The supernatant was collected (cytosolic fraction) and kept on ice. The resulting pellet was again resuspended in 400 μL of ice-cold Extraction Buffer IV/Membrane Extraction Buffer-A Mix (containing 2 μL of DTT and 2 μL of protease inhibitor cocktail per mL) and pipetted several times, and the sample was vortexed for 10–15 s to mix well. Then, 22 μL of Lysis Buffer/Membrane Extraction Buffer-B was added and vortexed for 5 s. The samples were incubated for 1 min on ice. Afterward, the sample was vortexed again for 5 s and centrifuged for 5 min at 1000g. The supernatant was immediately transferred to a clean, prechilled 1.5 mL tube and kept on ice (membrane fraction). The pellet was again resuspended in 200 μL of ice-cold Extraction Buffer V/Nuclear Extraction Buffer mix (containing 2 μL of DTT and 2 μL of protease inhibitor cocktail per mL), vortexed for 15 s, and kept on ice for 40 min with constant vortex for 15 s every 10 min. The sample was then microcentrifuged at top speed for 10 min. The resulting supernatant was transferred in a clean, prechilled 1.5 mL tube (nuclear fraction) and kept on ice. The remaining cytoskeletal fraction was dissolved in 100 μL of 0.2% SDS containing 10 mM DTT solution. All samples were digested over 65% HNO3 (0.5 mL) in an oven hot oven (90 °C). The solution was diluted with Milli-Q water to 10 mL, and the Ru content [ppb] was measured by ICP-MS.

SH-SY5Y cells = experiment: Intracellular Ca content by ICP-MS, dark or green light; type: cell-based; details: for Ca uptake, Dark: kept in the dark
Method: Six hours after compound addition, the cells were irradiated with green light or kept in the dark. Intracellular Ca^2+ levels were then assessed by ICP-MS 24 h after light activation. The NMDA and α-amino-3-hydroxy-5-methyl-4-isoxazole propionic acid (AMPA) receptors being glutamate-gated cation channels allow for an increase of calcium permeability of the neuron membrane; we also used L-glutamic acid (GA, 10 μM), a known NMDA and AMPA activator, as positive control in this assay.
1 mL of SH-SY5Y cells were seeded in 12-well plates (Greiner, No. 665180; 500.000 cells per well). […] After an additional 24 h of incubation, the cells were trypsined, collected, and centrifuged. The resulting cell pellet was dissolved in 1 mL of PBS and counted via a BioRad TC20 automated cell counter. Afterward, the solution was centrifuged and washed again with PBS with subsequent centrifuging two more times. The resulting cell pellet was digested in 0.5 mL of HNO3 overnight in a hot oven (90 °C). The solution was diluted with Milli-Q water to 10 mL, and the Ru and Ca content [ppb] was measured via ICP-MS.

Compound | Ru content, Cytosol (U-87MG cells) | Ru content, Membrane (U-87MG cells) | Ru content, Nucleus (U-87MG cells) | Ca uptake, Dark (SH-SY5Y cells; 20 μM) | increase of intracellular Ca^2+ content after light irradiation (SH-SY5Y cells; 10 μM, green light versus dark) | Ca uptake, Dark (SH-SY5Y cells; 10 μM)
CSCCO.F[P-](F)(F)(F)(F)F.F[P-](F)(F)(F)(F)F.[Ru+2].c1ccc(-c2cccc(-c3ccccn3)n2)nc1.c1ccc2cc(-c3cc4ccccc4cn3)ncc2c1 [[2](PF6)2] | 0.18 ng Ru/mio. cells and 0.18 ± 0.06 ng Ru/mio. cells | 0.83 ng Ru/mio. cells and 0.83± 0.57 ng Ru/mio. cells | 0.03 ± 0.03 ng Ru/mio. cells | 279.12 ± 56 ng Ca/mio. cells and 279 ng Ca/mio. cells |  | 
CSCCO.F[P-](F)(F)(F)(F)F.F[P-](F)(F)(F)(F)F.[Ru+2].c1ccc(-c2cccc(-c3ccccn3)n2)nc1.c1ccc2cc(Nc3cc4ccccc4cn3)ncc2c1 [[3](PF6)2] | 0.07 ± 0.05 ng Ru/mio. cells | 0.88 ng Ru/mio. cells and 0.88 ± 0.25 ng Ru/mio. cells | 0.17 ng Ru/mio. cells and 0.17 ± 0.06 ng Ru/mio. cells |  | 3 fold | 163.37 ± 93 ng Ca/mio. cells and 163 ng Ca/mio. cells

Source: paper PMC11833736 (ACS Pharmacology & Translational Science, 2025)
